ChEMBL document CHEMBL5214910, “Rational Design of Dipicolylamine-Containing Carbazole Amphiphiles Combined with Zn2+ as Potent Broad-Spectrum Antibacterial Agents with a Membrane-Disruptive Mechanism” (J Med Chem, 2021)
Values after ≈ are worked out from the molar mass of the structure shown. Active and inactive are the calls of the source. The calls are words filed in the database; no cut-off is given here.

Legend:
[1] = test system: Acinetobacter baumannii; test: Antibacterial activity against Acinetobacter baumannii ATCC 17978 assessed as inhibition of bacterial growth by measuring salt resistance incubated for 24 hrs in the presence of 12.5 ug/ml Zn2+ and 3220 ug/ml Na+ by Muller hinton broth based dilution assay; assay type: functional
[2] = test system: Escherichia coli; test: Antibacterial activity Escherichia coli ATCC 25922 assessed as inhibition of bacterial growth incubated for 24 hrs by Muller hinton broth based dilution assay; assay type: functional
[3] = test system: Acinetobacter baumannii; test: Antibacterial activity against Acinetobacter baumannii R2889 assessed as inhIbition of bacterial growth incubated for 24 hrs by Muller hinton broth based dilution assay; assay type: functional
[4] = test system: Staphylococcus aureus; test: Antibacterial activity against Methicillin-resistant Staphylococcus aureus NCTC10442 assessed as inhibition of bacterial growth incubated for 24 hrs in the presence of 12.5 ug/mL Zn2+ by Muller hinton broth based dilution assay; assay type: functional
[5] = test system: Escherichia coli; test: Antibacterial activity Escherichia coli ATCC 25922 assessed as inhibition of bacterial growth incubated for 24 hrs in the presence of 12.5 ug/mL Zn2+ by Muller hinton broth based dilution assay; assay type: functional
[6] = test system: Escherichia coli; test: Antibacterial activity Escherichia coli ATCC 25922 assessed as inhibition of bacterial growth incubated for 24 hrs in the presence of 50 ug/mL Zn2+ by Muller hinton broth based dilution assay; assay type: functional
[7] = test system: Escherichia coli; test: Antibacterial activity Escherichia coli ATCC 25922 assessed as inhibition of bacterial growth incubated for 24 hrs in the presence of 3.125 ug/mL Zn2+ by Muller hinton broth based dilution assay; assay type: functional
[8] = test system: Escherichia coli; test: Antibacterial activity Escherichia coli ATCC 25922 assessed as inhibition of bacterial growth incubated for 24 hrs in the presence of […] ug/mL Zn2+ by Muller hinton broth based dilution assay; assay type: functional
[9] = test system: Escherichia coli; test: Antibacterial activity Escherichia coli ATCC 25922 assessed as inhibition of bacterial growth incubated for 24 hrs in the presence of 0.78 ug/mL Zn2+ by Muller hinton broth based dilution assay; assay type: functional
[10] = test system: Escherichia coli; test: Antibacterial activity Escherichia coli ATCC 25922 assessed as inhibition of bacterial growth incubated for 24 hrs in the presence of 0.39 ug/mL Zn2+ by Muller hinton broth based dilution assay; assay type: functional
[11] = test system: Pseudomonas aeruginosa; test: Antibacterial activity Pseudomonas aeruginosa ATCC 9027 assessed as inhibition of bacterial growth incubated for 24 hrs in the presence of 25 ug/mL Zn2+ by Muller hinton broth based dilution assay; assay type: functional
[12] = test system: Pseudomonas aeruginosa; test: Antibacterial activity Pseudomonas aeruginosa ATCC 9027 assessed as inhibition of bacterial growth incubated for 24 hrs in the presence of 6.25 ug/mL Zn2+ by Muller hinton broth based dilution assay; assay type: functional
[13] = test system: Staphylococcus aureus; test: Antibacterial activity against Methicillin-resistant Staphylococcus aureus NCTC10442 assessed as inhibition of bacterial growth incubated for 24 hrs in the presence of 25 ug/mL Zn2+ by Muller hinton broth based dilution assay; assay type: functional
[14] = test system: Staphylococcus aureus; test: Antibacterial activity against Methicillin-resistant Staphylococcus aureus NCTC10442 assessed as inhibition of bacterial growth incubated for 24 hrs in the presence of 3.125 ug/mL Zn2+ by Muller hinton broth based dilution assay; assay type: functional
[15] = test system: Staphylococcus aureus; test: Antibacterial activity against Methicillin-resistant Staphylococcus aureus NCTC10442 assessed as inhibition of bacterial growth incubated for 24 hrs in the presence of 0.78 ug/mL Zn2+ by Muller hinton broth based dilution assay; assay type: functional
[16] = test system: Staphylococcus aureus; test: Antibacterial activity against Staphylococcus aureus ATCC 29213 assessed as inhibition of bacterial growth incubated for 24 hrs in the presence of 25 ug/mL Zn2+ by Muller hinton broth based dilution assay; assay type: functional
[17] = test system: Staphylococcus aureus; test: Antibacterial activity against Staphylococcus aureus ATCC 29213 assessed as inhibition of bacterial growth incubated for 24 hrs in the presence of 6.25 ug/mL Zn2+ by Muller hinton broth based dilution assay; assay type: functional
[18] = test system: Staphylococcus aureus; test: Antibacterial activity against Staphylococcus aureus ATCC 29213 assessed as inhibition of bacterial growth incubated for 24 hrs in the presence of 0.78 ug/mL Zn2+ by Muller hinton broth based dilution assay; assay type: functional
[19] = test system: Staphylococcus aureus; test: Antibacterial activity against Methicillin-resistant Staphylococcus aureus N315 assessed as inhibition of bacterial growth by measuring salt resistance incubated for 24 hrs in the presence of 12.5 ug/ml Zn2+ and 24.3 ug/ml Mg2+ by Muller hinton broth based dilution assay; assay type: functional
[20] = test system: Staphylococcus aureus; test: Antibacterial activity against Methicillin-resistant Staphylococcus aureus NCTC10442 assessed as inhibition of bacterial growth by measuring salt resistance incubated for 24 hrs in the presence of 12.5 ug/ml Zn2+ and 3220 ug/ml Na+ by Muller hinton broth based dilution assay; assay type: functional
[21] = test system: Staphylococcus aureus; test: Antibacterial activity against Methicillin-resistant Staphylococcus aureus NCTC10442 assessed as inhibition of bacterial growth by measuring salt resistance incubated for 24 hrs in the presence of 12.5 ug/ml Zn2+ and 24.3 ug/ml Mg2+ by Muller hinton broth based dilution assay; assay type: functional
[22] = test system: Escherichia coli; test: Antibacterial activity against Escherichia coli ATCC 25922 assessed as inhibition of bacterial growth by measuring salt resistance incubated for 24 hrs in the presence of 12.5 ug/ml Zn2+ and 100 ug/ml Ca2+ by Muller hinton broth based dilution assay; assay type: functional
[23] = test system: Acinetobacter baumannii; test: Antibacterial activity against Acinetobacter baumannii ATCC 17978 assessed as inhibition of bacterial growth by measuring salt resistance incubated for 24 hrs in the presence of 12.5 ug/ml Zn2+ and 100 ug/ml […] by Muller hinton broth based dilution assay; assay type: functional
[24] = Ratio of MIC for antibacterial activity against Acinetobacter baumannii ATCC 17978 to MIC for antibacterial activity against Acinetobacter baumannii ATCC 17978 in the presence of Zn2+; assay type: functional
[25] = test system: Escherichia coli; test: Antibacterial activity against Escherichia coli ATCC 25922 assessed as log reduction in bacterial count at 8 times of MIC incubated for 30 mins in the presence of 12.5 ug/ml Zn2+ by Muller hinton agar based time kill assay; assay type: functional; details: 0.5 h
[26] = test system: Cell membrane; test: Disruption of cell membrane integrity in Staphylococcus aureus ATCC 29213 assessed as increase in red fluorescence at 8 times of MIC measured for 2 hrs in the presence of 12.5 ug/ml Zn2+ by PI and SYTO staining based assay
[27] = test system: Lipopolysaccharide (LPS); test: Displacement of BODIPY-TR-cadaverin from Pseudomonas aeruginosa Lipopolysaccharide at 8 times of MIC incubated for 30 mins by fluorescence based microplate reader analysis relative to control
[28] = test system: Lipopolysaccharide (LPS); test: Displacement of BODIPY-TR-cadaverin from Pseudomonas aeruginosa Lipopolysaccharide at 4 times of MIC incubated for 30 mins in the presence of 12.5 ug/ml Zn2+ by fluorescence based microplate reader analysis relative to control
[29] = test system: Lipopolysaccharide (LPS); test: Displacement of BODIPY-TR-cadaverin from Pseudomonas aeruginosa Lipopolysaccharide at 8 times of MIC incubated for 30 mins in the presence of 12.5 ug/ml Zn2+ by fluorescence based microplate reader analysis relative to control
[30] = test system: Lipopolysaccharide (LPS); test: Displacement of BODIPY-TR-cadaverin from Pseudomonas aeruginosa Lipopolysaccharide at 16 times of MIC incubated for 30 mins in the presence of 12.5 ug/ml Zn2+ by fluorescence based microplate reader analysis relative to control

CC(C)=CCn1c2ccccc2c2c(OCC(O)CN(Cc3ccccn3)Cc3ccccn3)cccc21 (stereo not given)
MIC [1]: 0.78 µg/mL
MIC [2]: 6.25 µg/mL (≈ 12.3 µM)
MIC [3]: 3.12 µg/mL (≈ 6.17 µM)
MIC [4]: 1.56 µg/mL
MIC [5]: 1.56 µg/mL
MIC [6]: 1.56 µg/mL
MIC [7]: 3.12 µg/mL
MIC [8]: 6.25 µg/mL
MIC [9]: 6.25 µg/mL
MIC [10]: 6.25 µg/mL
MIC [11]: 3.12 µg/mL
MIC [12]: 3.12 µg/mL
MIC [13]: 0.78 µg/mL
MIC [14]: 1.56 µg/mL
MIC [15]: 1.56 µg/mL
MIC [16]: 1.56 µg/mL
MIC [17]: 1.56 µg/mL
MIC [18]: 3.12 µg/mL
MIC [19]: 1.56 µg/mL
MIC [20]: 1.56 µg/mL
MIC [21]: 1.56 µg/mL
MIC [22]: 6.25 µg/mL
MIC [23]: 3.12 µg/mL
Ratio [24]: 2
log(activity) [25]: 3.59
Activity [26]: Active
Activity [27]: 1.32%
Activity [28]: 59.5%
Activity [29]: 83.4%
Activity [30]: 91%
